Test results: EP0119449A1, “Aminopyrazoline derivatives” (THE WELLCOME FOUNDATION LIMITED, priority 1983, dated 1984)
Counter-ions that a name gives are not always drawn.

What was measured:
[1] = test system: Prostaglandin E2 concentrations in sponge exudates; test: Prostaglandin synthesis in carrageenin sponge inflammatory exudate; type: in vivo; conditions: Rattus norvegicus, po; male rats, sponges impregnated with 2% carrageenin, exudates collected 24 hours after implantation; read-out: ED50 (mg/kg p.o.) Prostaglandin Production (rat)
Procedure: (§1) The compound of Example 1 was subjected to the following tests. Results are given in Table II as ED50 mg/kg upon oral administration. Results are also provided by way of comparison for the compound 3-methylamino-1-(3-trifluoromethylphenyl)-2-pyrazoline (Compound A) which is disclosed in European Specification 55 418.
(§2) Inflammatory exudates were collected 24 hours after the subcutaneous implantation in male rats (180-220g) of sterile polyester sponges impregnated with 2% carrageenin. Prostaglandin E2 concentrations in sponge exudates were measured by bioassay and total leucocyte numbers were estimated using counting chambers and phase contrast microscopy. Drugs were administered orally in aqueous solution to groups of five animals at the time of sponge implantation, 5-8 hours later and 3 hours before sponge removal. Results are expressed as a percentage of control values obtained from similar groups of animals receiving vehicle alone. ED50 values were calculated for active compounds. The full dose-response data for lead compounds were subjected to regression analysis and ED50 values with 95% confidence limits have been obtained.

total leucocyte numbers = test: Leucocyte accumulation in carrageenin sponge inflammatory exudate; type: in vivo; conditions: Rattus norvegicus, po, male rats, sponges impregnated with 2% carrageenin, exudates collected 24 hours after implantation, read-out: ED50 (mg/kg p.o.) Leucocyte Migration (rat)
Procedure: as §1, §2

Carrageenin Oedema = test: Carrageenin-induced hind paw oedema; type: in vivo; conditions: Rattus norvegicus, po; female rats, sub-plantar 2% carrageenin, swelling measured 1-4 hours after injection
Procedure: as §1
Oedema was induced by the sub-plantar injection of 2% carrageenin (0.1 ml) in the hind paws of female rats (100-i30g). Swelling was measured 1-4 hours following carrageenin injection using a micrometer gauge. Drugs in aqueous solution were administered orally to groups of five rats at the time of carrageenin injection. Mean swelling was expressed as a percentage of control values obtained from similar groups of animals receiving vehicle alone.

PBQ Writhing = test: Phenylbenzoquinone (PBQ) induced writhing (pain); type: in vivo; conditions: Mus musculus, po; p.o. 1 hour before PBQ 2.5 mg/kg i.p.; female mice
Procedure: as §1
Writhing was induced in groups of 5 female mice (20-25g) following the intraperitoneal injection of phenylbenzoquinone (PBQ; 2.5 mg/kg). Anti-nociceptive effects of drugs were assessed by observing the reduction in writhing responses 10-12½ min after PBQ injection. Drugs were administered orally in aqueous solution 1 hour before PBQ injection and drug effects were expressed as a percentage of control values obtained from animals receiving vehicle alone.

Cyclooxygenase = test: Enzyme assay, inhibition of cyclooxygenase (method closely based on Borgeat et al); type: biochemical
Toxicity: ulcerogenicity = type: in vivo; conditions: rat, doses in the range 50-100 mg/kg

IC50 (Cyclooxygenase) [µM] | SMILES | ED50 [1] [mg/kg] | ED50 (total leucocyte numbers) [mg/kg] | ED50 (Carrageenin Oedema) [mg/kg] | ED50 (PBQ Writhing) [mg/kg] | ulcerogenic (Toxicity: ulcerogenicity)
 | CNC1=NN(c2cccc(C(F)(F)F)c2)CC1 [Compound A, 3-methylamino-1-(3-trifluoromethylphenyl)-2-pyrazoline, reference compound] | 20 | 20 | 26 | 20 | 
4.7 | CSc1cccc(N2CCC(N)=N2)c1 [Example 1, 3-amino-1-(3-methylthiophenyl)-2-pyrazoline] | 14 | 6.5 | 20 | 15 | not to be ulcerogenic
10 | CNC1=NN(c2cccc(SC)c2)CC1 [Example 3, 3-methylamino-1-(3-methylthiophenyl)-2-pyrazoline hydrobromide] |  |  |  |  | 
> 1 | C#CCNC1=NN(c2cccc(SC)c2)CC1 [Example 7, 1-(3-Methylthiophenyl)-3-(2-propynylamino)-2-pyrazoline hydrochloride] |  |  |  |  | 
